This note sets out measurements from patent US20250352550A1, “SUBSTITUTED FUROPYRIDINES FOR THERAPEUTIC USE” (MASARYKOVA UNIVERZITA, priority 2022, published 2025).

The structures appear in SMILES notation.

One test concerns the target T1, DDR1 (Homo sapiens, UniProt Q08345).
T1 construct: purchased Reaction Biology
The experiment in a line: HotSpot radiometric kinase assay (Reaction Biology), DDR1. Conditions: 200 nM kinase, substrate IRS1tide 20 μM, 33P-ATP, 120 minutes at room temperature. In kind it is biochemical. How it is done: (§1) The compounds were profiled in the HotSpot radiometric assays (Reaction Biology).
Briefly, • 1. Substrate indicated in Table 1 was dissolved in freshly prepared reaction buffer (20 mM HEPES (pH 7.5), 10 mM MgCl2, 1 mM EGTA, 0.01% Brij35, 0.02 mg/ml BSA, 0.1 mM Na3VO4, 2 mM DTT, 1% DMSO) at the concentration indicated in Table 1. • 2. Corresponding kinase (concentration indicated in Table 1) was added and the mixture was gently mixed. • 3. Tested compound dissolved in DMSO was added into the kinase reaction mixture. • 4. ^33P-ATP (specific activity 0.01 μCi/μL final) was added into the reaction mixture to initiate the reaction. • 5. The kinase reaction was incubated for 120 minutes at room temperature. • 6. […] The radioactive phosphorylated substrate remaining on the filter paper was measured.
(§2) Kinase activity data were expressed as the percent remaining kinase activity in tested samples compared to the vehicle (DMSO) reactions. IC50 values and curve fits were obtained using Prism4 Software (GraphPad).

The target in a further test is T2, FLT3 (Homo sapiens, UniProt P36888).
T2 construct: purchased Reaction Biology
T2 sequence (P36888 27-993): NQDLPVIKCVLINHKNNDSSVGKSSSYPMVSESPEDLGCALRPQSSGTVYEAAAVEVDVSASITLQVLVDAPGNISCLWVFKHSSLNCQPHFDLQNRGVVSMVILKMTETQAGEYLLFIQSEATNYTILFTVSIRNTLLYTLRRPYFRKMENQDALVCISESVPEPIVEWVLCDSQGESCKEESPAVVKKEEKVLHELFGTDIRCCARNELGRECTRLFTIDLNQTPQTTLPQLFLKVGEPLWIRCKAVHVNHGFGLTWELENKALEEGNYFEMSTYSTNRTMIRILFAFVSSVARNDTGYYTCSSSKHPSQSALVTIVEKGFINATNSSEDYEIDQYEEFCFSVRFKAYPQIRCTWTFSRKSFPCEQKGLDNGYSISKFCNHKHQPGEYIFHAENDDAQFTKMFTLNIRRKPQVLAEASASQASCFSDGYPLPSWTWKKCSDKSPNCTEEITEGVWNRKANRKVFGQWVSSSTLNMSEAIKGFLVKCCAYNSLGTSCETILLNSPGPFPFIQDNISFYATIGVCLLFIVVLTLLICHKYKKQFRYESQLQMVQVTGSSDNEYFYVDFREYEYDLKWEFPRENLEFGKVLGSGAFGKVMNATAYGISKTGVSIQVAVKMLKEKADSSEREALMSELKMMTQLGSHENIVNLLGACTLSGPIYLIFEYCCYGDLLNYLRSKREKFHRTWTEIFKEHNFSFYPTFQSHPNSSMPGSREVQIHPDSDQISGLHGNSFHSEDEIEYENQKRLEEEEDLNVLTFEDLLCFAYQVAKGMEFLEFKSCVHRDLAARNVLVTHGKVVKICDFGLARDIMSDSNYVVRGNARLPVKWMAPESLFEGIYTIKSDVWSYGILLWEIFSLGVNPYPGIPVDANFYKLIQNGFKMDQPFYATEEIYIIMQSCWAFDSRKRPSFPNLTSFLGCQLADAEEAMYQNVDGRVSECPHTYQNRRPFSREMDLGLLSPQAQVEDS
Description: HotSpot radiometric kinase assay (Reaction Biology), FLT3. In kind it is biochemical. To be noted: 4 nM kinase, substrate ABLtide 20 μM, 33P-ATP, 120 minutes at room temperature. How it is done: as §1
Briefly, • 1. Substrate indicated in Table 1 was dissolved in freshly prepared reaction buffer (20 mM HEPES (pH 7.5), 10 mM MgCl2, 1 mM EGTA, 0.01% Brij35, 0.02 mg/ml BSA, 0.1 mM Na3VO4, 2 mM DTT, 1% DMSO) at the concentration indicated in Table 1. • 2. Corresponding kinase (concentration indicated in Table 1) was added and the mixture was gently mixed. • 3. Tested compound dissolved in DMSO was added into the kinase reaction mixture. • 4. ^33P-ATP (specific activity 0.01 μCi/μL final) was added into the reaction mixture to initiate the reaction. • 5. The kinase reaction was incubated for 120 minutes at room temperature. • 6. Reaction mixture was spotted onto P81 ion exchange paper (Whatman K 3698-915). • 7. The filters were extensively washed with […]. • 7. The radioactive phosphorylated substrate remaining on the filter paper was measured.
as §2
Table 2 summarizes the inhibitory activities of indicated compounds tested in the in vitro kinase assays described above.

T1 sequence (Q08345 19-913): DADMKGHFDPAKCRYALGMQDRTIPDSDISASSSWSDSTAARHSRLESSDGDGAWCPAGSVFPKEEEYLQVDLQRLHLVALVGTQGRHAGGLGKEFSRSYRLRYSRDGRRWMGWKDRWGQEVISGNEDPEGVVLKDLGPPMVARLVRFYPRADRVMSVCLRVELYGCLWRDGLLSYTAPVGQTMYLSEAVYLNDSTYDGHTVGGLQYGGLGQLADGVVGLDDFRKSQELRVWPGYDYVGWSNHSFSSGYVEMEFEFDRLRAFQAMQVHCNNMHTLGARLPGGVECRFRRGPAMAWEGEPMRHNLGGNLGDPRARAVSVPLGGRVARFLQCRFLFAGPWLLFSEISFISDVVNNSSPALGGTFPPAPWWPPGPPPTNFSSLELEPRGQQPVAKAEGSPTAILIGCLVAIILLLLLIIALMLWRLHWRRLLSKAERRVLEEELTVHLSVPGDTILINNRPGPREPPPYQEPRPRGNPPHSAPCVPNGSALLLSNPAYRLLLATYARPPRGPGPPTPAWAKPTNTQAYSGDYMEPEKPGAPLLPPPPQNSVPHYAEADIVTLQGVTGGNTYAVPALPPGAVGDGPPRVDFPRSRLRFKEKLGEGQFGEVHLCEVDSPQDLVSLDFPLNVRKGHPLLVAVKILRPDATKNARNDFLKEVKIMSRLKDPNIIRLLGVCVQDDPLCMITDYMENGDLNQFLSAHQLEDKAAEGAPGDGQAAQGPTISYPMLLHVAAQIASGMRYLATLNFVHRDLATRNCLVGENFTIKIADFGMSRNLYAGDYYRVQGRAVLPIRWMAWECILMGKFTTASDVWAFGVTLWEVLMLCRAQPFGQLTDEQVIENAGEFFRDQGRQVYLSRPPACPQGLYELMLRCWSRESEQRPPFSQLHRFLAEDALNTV

Consider `N#Cc1cccc(-c2coc3cc(-c4ccc(N5CCNCC5)cc4)cnc23)c1` [Preparative Example 20, 3-(6-(4-(piperazin-1-yl)phenyl)furo[3,2-b]pyridin-3-yl)benzonitrile], for which the IC50 at DDR1 is 160 nM; against FLT3, 90 nM.
Regarding `c1cc(-c2coc3cc(-c4ccc(N5CCNCC5)nc4)cnc23)ccn1` [Preparative Example 25, 6-(6-(piperazin-1-yl)pyridin-3-yl)-3-(pyridin-4-yl)furo[3,2-b]pyridine], the concentration for half-maximal inhibition (IC50) against DDR1 was 791 nM; against FLT3 it was 49 nM.
For `Cn1ccc(-c2coc3cc(-c4ccc(N5CCNCC5)cc4)cnc23)n1` [Preparative Example 37, 3-(1-methyl-1H-pyrazol-3-yl)-6-(4-(piperazin-1-yl)phenyl)furo[3,2-b]pyridine], the results for the IC50 on DDR1 and on FLT3 were 222 nM and 282 nM, respectively.
The like results for `O=[N+]([O-])c1cccc(-c2coc3cc(-c4ccc(N5CCNCC5)cc4)cnc23)c1` [Preparative Example 40, 3-(3-nitrophenyl)-6-(4-(piperazin-1-yl)phenyl)furo[3,2-b]pyridine] were, in that order, 98 nM and 142 nM.
Turning to `Cc1ccc(-c2coc3cc(-c4ccc(N5CCNCC5)cc4)cnc23)cc1` [Preparative Example 43, 6-(4-(piperazin-1-yl)phenyl)-3-(p-tolyl)furo[3,2-b]pyridine], the IC50 on DDR1 was 126 nM; on FLT3 it was 175 nM.
With `CC(C)(C)Sc1cccc(-c2coc3cc(-c4ccc(N5CCNCC5)cc4)cnc23)c1` [Preparative Example 46, 3-(3-(tert-butylthio)phenyl)-6-(4-(piperazin-1-yl)phenyl)furo[3,2-b]pyridine], the IC50 on DDR1 is 586 nM; against FLT3 it was 578 nM.
Taken in the same sequence, the figures for `c1cc(-c2coc3cc(-c4ccc(N5CCNCC5)cc4)cnc23)co1` [Preparative Example 57, 3-(furan-3-yl)-6-(4-(piperazin-1-yl)phenyl)furo[3,2-b]pyridine] were 172 nM and 22 nM.
The like results for `CN1CCN(c2ccc(-c3cnc4c(-c5ccncc5)coc4c3)cc2)CC1` [Preparative Example 58, 6-(4-(4-methylpiperazin-1-yl)phenyl)-3-(pyridin-4-yl)furo[3,2-b]pyridine] were, in that order, 364 nM and 31 nM.
Consider `NS(=O)(=O)c1cccc(-c2coc3cc(-c4ccc(N5CCNCC5)cc4)cnc23)c1` [Preparative Example 64, 3-(6-(4-(piperazin-1-yl)phenyl)furo[3,2-b]pyridin-3-yl)benzenesulfonamide], for which the IC50 against DDR1 was determined as 134 nM; against FLT3, 26 nM.
As for `COCc1cccc(-c2coc3cc(-c4ccc(N5CCNCC5)cc4)cnc23)c1` [Preparative Example 70, 3-(3-(methoxymethyl)phenyl)-6-(4-(piperazin-1-yl)phenyl)furo[3,2-b]pyridine], the values for the IC50 against DDR1 and against FLT3 were 196 nM and 54 nM, respectively.
As to `FC(F)(F)c1cccc(-c2coc3cc(-c4ccc(N5CCNCC5)cc4)cnc23)c1` [Preparative Example 73, 6-(4-(piperazin-1-yl)phenyl)-3-(3-(trifluoromethyl)phenyl)furo[3,2-b]pyridine], the IC50 against DDR1 is 966 nM; on FLT3, 717 nM.
As to `CCOC(=O)Nc1cccc(-c2coc3cc(-c4ccc(N5CCN(C)CC5)cc4)cnc23)c1` [Preparative Example 83, ethyl (3-(6-(4-(4-methylpiperazin-1-yl)phenyl)furo[3,2-b]pyridin-3-yl)phenyl)carbamate], the IC50 against DDR1 was 622 nM; on FLT3 it was 99 nM.
Consider `CN1CCN(c2ccc(Nc3cnc4c(-c5ccccc5)coc4c3)cc2)CC1` [Preparative Example 101, N-(4-(4-methylpiperazin-1-yl)phenyl)-3-phenylfuro[3,2-b]pyridin-6-amine], for which the IC50 on DDR1 turned out to be 347 nM; at FLT3, 146 nM.
Consider `c1ccc(Oc2cccc(-c3coc4cc(-c5ccc(N6CCNCC6)cc5)cnc34)c2)cc1` [Preparative Example 104, 3-(3-phenoxyphenyl)-6-(4-(piperazin-1-yl)phenyl)furo[3,2-b]pyridine], for which the IC50 against DDR1 was 252 nM; against FLT3, 121 nM.
Taken in the same sequence, the figures for `FC(F)(F)Oc1cccc(-c2coc3cc(-c4ccc(N5CCNCC5)cc4)cnc23)c1` [Preparative Example 113, 6-(4-(piperazin-1-yl)phenyl)-3-(3-(trifluoromethoxy)phenyl)furo[3,2-b]pyridine] were 869 nM and 649 nM.
The like results for `FC(F)(F)COc1cccc(-c2coc3cc(-c4ccc(N5CCNCC5)cc4)cnc23)c1` [Preparative Example 116, 6-(4-(piperazin-1-yl)phenyl)-3-(3-(2,2,2-trifluoroethoxy)phenyl)furo[3,2-b]pyridine] were, in that order, 673 nM and 353 nM.
For `CS(=O)(=O)NCc1cccc(-c2coc3cc(-c4ccc(N5CCNCC5)cc4)cnc23)c1` [Preparative Example 125, N-(3-(6-(4-(piperazin-1-yl)phenyl)furo[3,2-b]pyridin-3-yl)benzyl)methanesulfonamide], the IC50 against DDR1 worked out at 198 nM; against FLT3 it was 21 nM.
With `CN(C)c1cccc(-c2coc3cc(-c4ccc(N5CCNCC5)cc4)cnc23)c1` [Preparative Example 131, N,N-dimethyl-3-(6-(4-(piperazin-1-yl)phenyl)furo[3,2-b]pyridin-3-yl)aniline], the IC50 against DDR1 amounted to 385 nM; against FLT3, 345 nM.
The like results for `CN1CCN(c2ccc(-c3cnc4c(-c5cccc(C(=O)c6ccccc6)c5)coc4c3)cc2)CC1` [Preparative Example 133, (3-(6-(4-(4-methylpiperazin-1-yl)phenyl)furo[3,2-b]pyridin-3-yl)phenyl)(phenyl)methanone] were, in that order, 472 nM and 269 nM.
Taken in the same sequence, the figures for `CN1CCN(c2ccc(-c3cnc4c(-c5cccc(CNC(=O)OC(C)(C)C)c5)coc4c3)cc2)CC1` [Preparative Example 135, tert-butyl (3-(6-(4-(4-methylpiperazin-1-yl)phenyl)furo[3,2-b]pyridin-3-yl)benzyl)carbamate] were 423 nM and 350 nM.
Taken in the same sequence, the figures for `CC(=O)NCc1cccc(-c2coc3cc(-c4ccc(N5CCN(C)CC5)cc4)cnc23)c1` [Preparative Example 137, N-(3-(6-(4-(4-methylpiperazin-1-yl)phenyl)furo[3,2-b]pyridin-3-yl)benzyl)acetamide] were 206 nM and 78 nM.
In the case of `CCNS(=O)(=O)Cc1cccc(-c2coc3cc(-c4ccc(N5CCN(C)CC5)cc4)cnc23)c1` [Preparative Example 141, N-ethyl-1-(3-(6-(4-(4-methylpiperazin-1-yl)phenyl)furo[3,2-b]pyridin-3-yl)phenyl)methanesulfonamide], the IC50 at DDR1 amounted to 763 nM; against FLT3, 805 nM.
Taken in the same sequence, the figures for `CN1CCN(c2ccc(-c3cnc4c(-c5cccc(CS(=O)(=O)N(C)C)c5)coc4c3)cc2)CC1` [Preparative Example 145, N,N-dimethyl-1-(3-(6-(4-(4-methylpiperazin-1-yl)phenyl)furo[3,2-b]pyridin-3-yl)phenyl)methane-sulfonamide] were 773 nM and 118 nM.
